Laboratory results reported in ChEMBL document CHEMBL1201862, “PubChem BioAssay data set” (2004).
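Method: 48-hour compound exposure of cells in 96-well plates, five concentrations, linear interpolation of endpoints. GI50 is the concentration that inhibits growth by half.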 Active and inactive are the calls of the source. Cut-off read from the data, not from the text of the source: active = GI50 up to about 1.1 µM and inactive = higher.

Legend:
Assay in all cases: NCI anticancer screen, dose series, 48 h
OVCAR-5 = test system: OVCAR-5
SNB-78 = test system: SNB-78
786-0 = test system: 786-0
OVCAR-8 = test system: OVCAR-8
LOX IMVI = test system: LOX IMVI
UACC-62 = test system: UACC-62
COLO 205 = test system: COLO 205
HOP-92 = test system: HOP-92
SN12C = test system: SN12C
NCI-H522 = test system: NCI-H522
IGROV-1 = test system: IGROV-1
NCI-H226 = test system: NCI-H226
OVCAR-4 = test system: OVCAR-4
OVCAR-3 = test system: OVCAR-3
K562 = test system: K562
HT-29 = test system: HT-29
KM12 = test system: KM12
HOP-62 = test system: HOP-62
A549 = test system: A549
ACHN = test system: ACHN
SK-OV-3 = test system: SK-OV-3
Malme-3M = test system: Malme-3M
SNB-75 = test system: SNB-75
RXF 393 = test system: RXF 393
HCT-15 = test system: HCT-15
DLD-1 = test system: DLD-1
HL-60 = test system: HL-60
SR = test system: SR
LXFL 529 = test system: LXFL 529
MOLT-4 = test system: MOLT-4
NCI-H460 = test system: NCI-H460
HCT-116 = test system: HCT-116
CAKI-1 = test system: CAKI-1
HOP-18 = test system: HOP-18
TK-10 = test system: TK-10
SF-539 = test system: SF-539
SK-MEL-5 = test system: SK-MEL-5
SF-268 = test system: SF-268
M14 = test system: M14
U-251 = test system: U-251
SK-MEL-28 = test system: SK-MEL-28
EKVX = test system: EKVX
M19-MEL = test system: M19-MEL
NCI-H23 = test system: NCI-H23
SF-295 = test system: SF-295
RPMI-8226 = test system: RPMI-8226
SW-620 = test system: SW-620
DMS-114 = test system: DMS-114
CCRF-CEM = test system: CCRF-CEM
A498 = test system: A498
SK-MEL-2 = test system: SK-MEL-2
UACC-257 = test system: UACC-257
KM-20L2 = test system: KM-20L2
DMS-273 = test system: DMS-273
HCC 2998 = test system: HCC 2998
UO-31 = test system: UO-31
SNB-19 = test system: SNB-19

## O=C(NC(=O)c1cn(CCNCCO)c(=O)[nH]c1=O)OCc1ccccc1
OVCAR-5
  GI50: > 100 µM (inactive)
SNB-78
  GI50: > 100 µM (inactive)
786-0
  GI50: > 100 µM (inactive)
OVCAR-8
  GI50: > 100 µM (inactive)
LOX IMVI
  GI50: > 100 µM (inactive)
UACC-62
  GI50: > 100 µM (inactive)
COLO 205
  GI50: > 100 µM (inactive)
HOP-92
  GI50: > 100 µM (inactive)
SN12C
  GI50: > 100 µM (inactive)
NCI-H522
  GI50: > 100 µM (inactive)
IGROV-1
  GI50: > 100 µM (inactive)
NCI-H226
  GI50: > 100 µM (inactive)
OVCAR-4
  GI50: > 100 µM (inactive)
OVCAR-3
  GI50: > 100 µM (inactive)
K562
  GI50: > 100 µM (inactive)
HT-29
  GI50: > 100 µM (inactive)
KM12
  GI50: > 100 µM (inactive)
HOP-62
  GI50: > 100 µM (inactive)
A549
  GI50: > 100 µM (inactive)
ACHN
  GI50: > 100 µM (inactive)
SK-OV-3
  GI50: > 100 µM (inactive)
Malme-3M
  GI50: > 100 µM (inactive)
SNB-75
  GI50: 45.9 µM (inactive)
RXF 393
  GI50: > 100 µM (inactive)
HCT-15
  GI50: > 100 µM
DLD-1
  GI50: > 100 µM (inactive)
HL-60
  GI50: > 100 µM (inactive)
SR
  GI50: > 100 µM (inactive)
LXFL 529
  GI50: > 100 µM (inactive)
MOLT-4
  GI50: > 100 µM (inactive)
NCI-H460
  GI50: > 100 µM (inactive)
HCT-116
  GI50: > 100 µM (inactive)
CAKI-1
  GI50: > 100 µM (inactive)
HOP-18
  GI50: < 0.01 µM (active)
TK-10
  GI50: > 100 µM (inactive)
SF-539
  GI50: > 100 µM (inactive)
SK-MEL-5
  GI50: > 100 µM (inactive)
SF-268
  GI50: > 100 µM (inactive)
M14
  GI50: > 100 µM (inactive)
U-251
  GI50: > 100 µM (inactive)
SK-MEL-28
  GI50: > 100 µM (inactive)
EKVX
  GI50: > 100 µM (inactive)
M19-MEL
  GI50: > 100 µM (inactive)
NCI-H23
  GI50: > 100 µM (inactive)
SF-295
  GI50: > 100 µM (inactive)
RPMI-8226
  GI50: > 100 µM (inactive)
SW-620
  GI50: > 100 µM (inactive)
DMS-114
  GI50: > 100 µM (inactive)
CCRF-CEM
  GI50: > 100 µM (inactive)

## Cc1nn(C(=O)CC(=O)Nc2ccc(Cl)cc2)c(C)c1/N=N/c1ccccc1C(=O)O
OVCAR-5
  GI50: > 100 µM (inactive)
SNB-78
  GI50: > 100 µM (inactive)
A498
  GI50: > 100 µM (inactive)
786-0
  GI50: > 100 µM (inactive)
OVCAR-8
  GI50: > 100 µM (inactive)
SK-MEL-2
  GI50: > 100 µM (inactive)
LOX IMVI
  GI50: > 100 µM (inactive)
UACC-257
  GI50: > 100 µM (inactive)
KM-20L2
  GI50: > 100 µM (inactive)
UACC-62
  GI50: > 100 µM (inactive)
COLO 205
  GI50: > 100 µM (inactive)
SN12C
  GI50: > 100 µM (inactive)
NCI-H522
  GI50: > 100 µM (inactive)
IGROV-1
  GI50: > 100 µM (inactive)
OVCAR-4
  GI50: > 100 µM (inactive)
OVCAR-3
  GI50: > 100 µM (inactive)
K562
  GI50: > 100 µM (inactive)
HT-29
  GI50: > 100 µM (inactive)
KM12
  GI50: > 100 µM (inactive)
HOP-62
  GI50: > 100 µM (inactive)
A549
  GI50: > 100 µM (inactive)
DMS-273
  GI50: > 100 µM (inactive)
SK-OV-3
  GI50: > 100 µM (inactive)
Malme-3M
  GI50: > 100 µM (inactive)
SNB-75
  GI50: 39.5 µM (inactive)
HCT-15
  GI50: > 100 µM
DLD-1
  GI50: > 100 µM (inactive)
HL-60
  GI50: > 100 µM (inactive)
LXFL 529
  GI50: > 100 µM (inactive)
MOLT-4
  GI50: > 100 µM (inactive)
NCI-H460
  GI50: > 100 µM (inactive)
HCT-116
  GI50: > 100 µM (inactive)
CAKI-1
  GI50: > 100 µM (inactive)
TK-10
  GI50: > 100 µM (inactive)
SF-539
  GI50: > 100 µM (inactive)
SK-MEL-5
  GI50: > 100 µM (inactive)
SF-268
  GI50: > 100 µM (inactive)
HCC 2998
  GI50: > 100 µM (inactive)
M14
  GI50: > 100 µM (inactive)
UO-31
  GI50: > 100 µM (inactive)
U-251
  GI50: > 100 µM (inactive)
SK-MEL-28
  GI50: > 100 µM (inactive)
EKVX
  GI50: > 100 µM (inactive)
SNB-19
  GI50: > 100 µM (inactive)
M19-MEL
  GI50: > 100 µM (inactive)
NCI-H23
  GI50: > 100 µM (inactive)
SF-295
  GI50: > 100 µM (inactive)
RPMI-8226
  GI50: > 100 µM (inactive)
SW-620
  GI50: > 100 µM (inactive)
DMS-114
  GI50: > 100 µM (inactive)
CCRF-CEM
  GI50: > 100 µM (inactive)
